Here are results for three compounds from publication PMC6449356 (Scientific Reports, 2019).

In experiment [1] the test system is cell-free extracts from E. coli and from S. aureus linezolid-susceptible and -resistant strains. Put plainly: In vitro translation in cell-free extracts, summary over the three extracts. It is filed as biochemical. As to conditions: range over extracts from E. coli and S. aureus linezolid-susceptible and -resistant strains. As to the method: (§1) The cell-free protein synthesis reactions were carried out based on a procedure published for E. coli[37] and adapted for S. aureus as described previously for C. difficile. To improve expression from extracts derived from S. aureus, the firefly luciferase reporter gene was resynthesized with codons optimized for S. aureus at GeneArt AG (Regensburg, Germany) and cloned into plasmid pSP-luc_NF Fusion (Promega), replacing the existing luciferase gene. In addition, a 180-bp-long BglII-HindIII promoter fragment of gene abrB310 derived from Clostridium acetobutylicum was synthesized and cloned upstream of the codon-optimized luciferase gene for efficient translation, leading to plasmid pSPAbrlac-luc_Saur. […]
(§2) Test compounds diluted in 8% DMSO were added to reaction buffer containing bacterial extract and SP6 RNA polymerase, yielding final concentrations of 100, 20, 4, 0.8, 0.16, 0.04, 0.008, 0.0016, and 0 µM. […] The luminescence was immediately measured after addition of the luciferase substrate Bright Glo (Promega, E2610) using a Tecan SpectralFluor Plus Reader (GeniosPro) instrument (parameters: integration time 1000 ms; intensity normal). Fifty percent inhibitory concentrations (IC50s) were calculated from the data.

Experiment [2] concerns cell-free extract from E. coli ATCC 25922 (coupled transcription/translation). Nature of the experiment: In vitro transcription/translation (IVTT) assay, E. coli extract. It is filed as biochemical, Escherichia coli. As to conditions: E. coli ATCC 25922 extract; average value and range of three independent experiments.
Another experiment relates to E. coli ATCC 25922. Put plainly: MIC, micro dilution (CLSI). As to conditions: Escherichia coli, ATCC25922. It counts as cell-based. As for the experimental part:
(§3) The MICs were determined using the micro dilution method recommended by the Clinical and Laboratory Standards Institute (CLSI).

The test system of a further experiment is E. coli MG1655 tolC::kan. Put plainly: MIC, micro dilution (CLSI). It is filed as cell-based. As to conditions: Escherichia coli. As to the method: as §3
In the next experiment the test system is S. aureus ATCC 29213. Nature of the experiment: MIC, micro dilution (CLSI). It counts as cell-based. As to conditions: Staphylococcus aureus, ATCC29213, median value of at least 3 determinations. As for the experimental part: as §3
For another experiment, the system named is S. aureus S1 LZD^R. Nature of the experiment: MIC, micro dilution (CLSI). It counts as cell-based. As to conditions: Staphylococcus aureus. As to the method: as §3
Experiment [3] has as its system S. aureus linezolid-nonsusceptible strains carrying cfr (12). Nature of the experiment: MIC50/MIC90, broth microdilution (CLSI), strain panel. It is filed as cell-based, Staphylococcus aureus. As to conditions: linezolid-nonsusceptible S. aureus carrying cfr (12 strains). The text has this: (§4) resistance mechanisms using broth microdilution methods (CLSI).
(§5) Cadazolid Lin e zolid Vancom yc in
(§6) lin e zolid-nonsusceptible (26**)
(§7) * The 12 tested wild-type control strains include methicillin [oxacillin]-resistant [MRSA]
(§8) strains [41.7%] from JMI Laboratories (North Liberty, Iowa).
(§9) ** The 26 clinical strains tested included 12 cfr-positive and 14 23S rRNA mutants [G2576U].

The subject of experiment [4] is S. aureus linezolid-nonsusceptible G2576U mutants (14). The description is as above. It is filed as cell-based, Staphylococcus aureus. As to conditions: linezolid-nonsusceptible S. aureus G2576U mutants (14 strains).
Excerpt: as §4, §5, §6, §7, §8, §9

Experiment [5] deals with S. aureus wild-type strains (12). Described as above. It counts as cell-based, Staphylococcus aureus. As to conditions: wild-type S. aureus (12 strains).
Excerpt: as §4, §5, §6, §7, §8, §9

Experiment [6] has as its system cell-free extract from S. aureus ATCC 29213 (coupled transcription/translation). Put plainly: In vitro transcription/translation (IVTT) assay, S. aureus wt extract. It counts as biochemical, Staphylococcus aureus. As to conditions: S. aureus ATCC 29213 extract, average value and range of three independent experiments. As for the experimental part: The cell-free protein synthesis reactions were carried out based on a procedure published for E. coli[37] and adapted for S. aureus as described previously for C. difficile. To improve expression from extracts derived from S. aureus, the firefly luciferase reporter gene was resynthesized with codons optimized for S. aureus at GeneArt AG (Regensburg, Germany) and cloned into plasmid pSP-luc_NF Fusion (Promega), replacing the existing luciferase gene. In addition, a 180-bp-long BglII-HindIII promoter fragment of gene abrB310 derived from Clostridium acetobutylicum was synthesized and cloned upstream of the codon-optimized luciferase gene for efficient translation, leading to plasmid pSPAbrlac-luc_Saur. S. aureus bacterial extracts were prepared according to a simplified E. coli procedure using a FastPrep®-24 instrument from Lucerna Chem AG (Cat No. 6004-500) and lysing matrix B (Lucerna Chem, Cat No. 116911100; silica spheres < 100 µm).
Test compounds diluted in 8% DMSO were added to reaction buffer containing bacterial extract and SP6 RNA polymerase, yielding final concentrations of 100, 20, 4, 0.8, 0.16, 0.04, 0.008, 0.0016, and 0 µM. Samples were mixed and pre-incubated for 10 min at RT before 100 ng plasmid pBestluc (E. coli) or 500 ng plasmid pSPAbrlac-luc_Saur (S. aureus) was added. After mixing, the plate was incubated at RT for 90 min. The luminescence was immediately measured after addition of the luciferase substrate Bright Glo (Promega, E2610) using a Tecan SpectralFluor Plus Reader (GeniosPro) instrument (parameters: integration time 1000 ms; intensity normal). Fifty percent inhibitory concentrations (IC50s) were calculated from the data.

Experiment [7] deals with cell-free extract from S. aureus S1 (LZD^R, homozygous G2576U in 23S rRNA). Put plainly: In vitro transcription/translation (IVTT) assay, S. aureus S1 LZD-resistant extract. It counts as biochemical, Staphylococcus aureus. As to conditions: average value and range of three independent experiments. As for the experimental part:
as §1, §2

SMILES strings stand for the structures. ≈ marks a conversion by molar mass, not a printed value. Where two headings read alike, the source gives them in different places.

Regarding `O=C(O)c1cn(C2CC2)c2cc(N3CCC(O)(COc4ccc(N5C[C@H](CO)OC5=O)cc4F)CC3)c(F)cc2c1=O` [Cadazolid], the IC50 in experiment [1] is 240 to 330 nM; in experiment [2], 240 nM; in experiment [6] it was 320 nM; in experiment [7], 330 nM. Further, the MIC with E. coli ATCC 25922 (E. coli ATCC 25922, median value of at least 3 determinations, read-out: MIC) is 8 µg/mL (≈ 13.7 µM); with E. coli MG1655 tolC::kan, at most 0.063 µg/mL; against S. aureus ATCC 29213, 0.5 µg/mL (≈ 0.854 µM); against S. aureus S1 LZD^R, 1 µg/mL (≈ 1.71 µM). In addition, the MIC50 in [3] is reported as 0.25; in [4], 0.5; in experiment [5], 0.25. Moreover, the MIC90 in experiment [3] turned out to be 0.5; in experiment [4], 0.5; in experiment [5] it was 0.25.

Turning to `CC(=O)NC[C@H]1CN(c2ccc(N3CCOCC3)c(F)c2)C(=O)O1` [Linezolid], the IC50 in [2] turned out to be 4030 nM; in experiment [6] it was 2610 nM; in [6] (listed as LZD), 2600 nM; in experiment [7] it was 7030 nM. Also, the MIC is above 32 µg/mL against E. coli ATCC 25922, 8 µg/mL (≈ 23.7 µM) in the experiment on E. coli MG1655 tolC::kan, 2 µg/mL (≈ 5.93 µM) against S. aureus ATCC 29213 and 32 µg/mL (≈ 94.9 µM) with S. aureus S1 LZD^R. For the same compound, the MIC50 amounted to 8 in experiment [3], 8 in experiment [4] and 1 in experiment [5]. Further, the MIC90 is recorded as 8 in [3], 16 in experiment [4] and 1 in [5].

Consider `CN[C@H](CC(C)C)C(=O)N[C@H]1C(=O)N[C@@H](CC(N)=O)C(=O)N[C@H]2C(=O)N[C@H]3C(=O)N[C@H](C(=O)N[C@H](C(=O)O)c4cc(O)cc(O)c4-c4cc3ccc4O)[C@H](O)c3ccc(c(Cl)c3)Oc3cc2cc(c3O[C@@H]2O[C@H](CO)[C@@H](O)[C@H](O)[C@H]2O[C@H]2C[C@](C)(N)[C@H](O)[C@H](C)O2)Oc2ccc(cc2Cl)[C@H]1O` [Vancomycin], for which the MIC50 turned out to be 0.5 in experiment [3], 1 in experiment [4] and 1 in experiment [5]. Also, the MIC90 in experiment [3], in experiment [4] and in experiment [5] was 1 in each case.
